The numbers were not newly measured in US20130347140A1, “High Rebaudioside-A Plant and Methods of Producing the Same and Uses Thereof” (priority 2010, published 2013), which cites them from elsewhere.

For this data set the following is noted: vs sugar.

In the case of `C=C1C[C@@]23CC[C@H]4[C@@](C)(CCC[C@@]4(C)C(=O)O[C@@H]4O[C@H](CO)[C@@H](O)[C@H](O)[C@H]4O)[C@@H]2CC[C@]1(O[C@@H]1O[C@H](CO)[C@@H](O)[C@H](O)[C@H]1O[C@@H]1O[C@H](CO)[C@@H](O)[C@H](O)[C@H]1O)C3` [Stevioside], the “sweetness, × of sugar” value is 250-300 ×.
Take `C=C1C[C@@]23CC[C@H]4[C@@](C)(CCC[C@@]4(C)C(=O)O[C@@H]4O[C@H](CO)[C@@H](O)[C@H](O)[C@H]4O)[C@@H]2CC[C@]1(O[C@@H]1O[C@H](CO)[C@@H](O)[C@H](O[C@@H]2O[C@H](CO)[C@@H](O)[C@H](O)[C@H]2O)[C@H]1O[C@@H]1O[C@H](CO)[C@@H](O)[C@H](O)[C@H]1O)C3` [Rebaudioside A]: the “sweetness, × of sugar” value is reported as 350-450 ×.
